“And” between values parts separate entries of the source, which are not always exact repeats. Equal entries are not always repeated. “Also recorded” adds a separate entry of the source. Where two headings read alike, the source gives them in different places. Marks after values point to notes of the source that are not given here.
Legend:
hCB1R [1] = target: T1, hCB1R (Homo sapiens, UniProt P21554); assay: biochemical; format: binding
T1 construct: expressed in transfected cells; membranes

hCB2R [2] = target: T2, hCB2R (Homo sapiens, UniProt P34972); assay: [^3H]CP55,940 displacement from hCB2R CHO cell membranes; conditions: for hCB2R Emin: bottom of the concentration–response curve of [^3H]CP55,940 displacement, %CP55,940 response, mean ± SEM; for extent of [^3H]CP55,940 displacement from hCB2R, in words: concentration range 0.1 nM–10 µM
hCB1R [3] = target: T1, hCB1R; assay: cell-based; format: cell-based; conditions: for Emax: CHO, read-out: hCB1R Emax, inhibition of FSK-stimulated cAMP accumulation; for EC50: HitHunter CHO hCB1R cells, 90 min, 95% CI in brackets, read-out: hCB1R EC50, inhibition of FSK-stimulated cAMP accumulation
C57BL/6 mice [4] = assay: Tetrad of assays, overall
hCB2R [5] = target: T2, hCB2R; assay: hCB2R-dependent recruitment of βarrestin2 (PathHunter CHO cells); format: cell-based; parameters: expressed in transfected cells; membranes; conditions: for activity in hCB2R βarrestin2 recruitment, in words: 0.1 nM–10 µM, relative to CP55,940; for Emax: CHO
hCB1R [6] = target: T1, hCB1R; assay: cell-based; conditions: for Emax: CHO, read-out: hCB1R Emax, recruitment of βarrestin2; for EC50: PathHunter CHO hCB1R cells, 90 min, 95% CI in brackets, read-out: hCB1R EC50, recruitment of βarrestin2
hCB2R [7] = target: T2, hCB2R; assay: hCB2R-dependent inhibition of FSK-stimulated cAMP accumulation (HitHunter CHO cells); format: cell-based; parameters: expressed in transfected cells; membranes; conditions: for Emax: CHO; for agonist activity in hCB2R cAMP inhibition, in words: 0.1 nM–10 µM, relative to CP55,940
C57BL/6 mice [8] = assay: Nociception in the tail flick assay (tetrad); format: in vivo
Method: (§1) Asterisk colour matches the treatment group assessed.
(§2) Concentration–response curves (CRC) were fit using non-linear regression with variable slope (4 parameters) and used to calculate EC50, Emin, and Emax (GraphPad, Prism, v. 8.0). […] In vivo data are presented as % MPE for catalepsy (MPE = 60 s) and anti-nociception (MPE = 20 s), °C for body temperature, and distance travelled (m) and % time in the centre quadrant in 5 min for OFT. Post-hoc analyses were performed using Tukey’s (one-way ANOVA) test. Homogeneity of variance was confirmed using Bartlett’s test. All data were evaluated for possible outliers using Grubb’s test in GraphPad.

C57BL/6 mice [9] = assay: Catalepsy in the ring holding assay (tetrad); format: in vivo; conditions: 10 mg/kg i.p., MPE 60 s = 100%
Method: as §1, §2

C57BL/6 mice [10] = assay: Body temperature (tetrad); format: in vivo; conditions: 10 mg/kg i.p.
Method: as §1, §2

C57BL/6 mice [11] = assay: Locomotion in the open field test (OFT); format: in vivo; conditions: 3 and 10 mg/kg i.p.
Method: as §1, §2

C57BL/6 mice [12] = assay: Time in the centre quadrant of the OFT (anxiety-like behaviour); format: in vivo; conditions: 1 h post-injection
Method: as §1, §2

hCB2R [13] = target: T2, hCB2R; assay: biochemical
CB2R = conditions: read-out: affinity for CB2R (previous reports); cited from earlier work
CB1R = conditions: read-out: affinity for CB1R (previous reports); cited from earlier work
hCB1R [14] = target: T1, hCB1R; assay: Ligand bias between cAMP inhibition and βarrestin2 recruitment at hCB1R (operational model); format: cell-based; conditions: ∆∆LogR > 0 bias for inhibition of cAMP, < 0 bias for βarrestin2; CP55,940 reference agonist
Method: (§3) Figure 8 Analysis of ligand bias for phytocannabinoids at hCB1R (a) and hCB2R (b).
as §2

hCB2R [15] = target: T2, hCB2R; assay: Ligand bias between cAMP inhibition and βarrestin2 recruitment at hCB2R (operational model); format: cell-based; parameters: expressed in transfected cells; membranes; conditions: ∆∆LogR > 0 bias for inhibition of cAMP, < 0 bias for βarrestin2; CP55,940 reference agonist
Method: as §3, §2

[16] = HitHunter CHO hCB2R cells, 90 min, 95% CI in brackets, read-out: hCB2R EC50, inhibition of FSK-stimulated cAMP accumulation

T2 sequence (P34972 whole entry): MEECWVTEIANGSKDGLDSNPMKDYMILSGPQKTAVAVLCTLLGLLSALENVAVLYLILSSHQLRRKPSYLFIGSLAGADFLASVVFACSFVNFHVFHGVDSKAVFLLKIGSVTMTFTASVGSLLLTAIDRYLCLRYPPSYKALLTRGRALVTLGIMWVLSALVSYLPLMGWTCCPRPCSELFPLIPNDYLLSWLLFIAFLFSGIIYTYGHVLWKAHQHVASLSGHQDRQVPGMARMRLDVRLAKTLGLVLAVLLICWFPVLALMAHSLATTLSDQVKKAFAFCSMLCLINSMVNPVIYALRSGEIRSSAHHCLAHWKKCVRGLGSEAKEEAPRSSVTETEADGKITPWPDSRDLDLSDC
T1 sequence (P21554 whole entry): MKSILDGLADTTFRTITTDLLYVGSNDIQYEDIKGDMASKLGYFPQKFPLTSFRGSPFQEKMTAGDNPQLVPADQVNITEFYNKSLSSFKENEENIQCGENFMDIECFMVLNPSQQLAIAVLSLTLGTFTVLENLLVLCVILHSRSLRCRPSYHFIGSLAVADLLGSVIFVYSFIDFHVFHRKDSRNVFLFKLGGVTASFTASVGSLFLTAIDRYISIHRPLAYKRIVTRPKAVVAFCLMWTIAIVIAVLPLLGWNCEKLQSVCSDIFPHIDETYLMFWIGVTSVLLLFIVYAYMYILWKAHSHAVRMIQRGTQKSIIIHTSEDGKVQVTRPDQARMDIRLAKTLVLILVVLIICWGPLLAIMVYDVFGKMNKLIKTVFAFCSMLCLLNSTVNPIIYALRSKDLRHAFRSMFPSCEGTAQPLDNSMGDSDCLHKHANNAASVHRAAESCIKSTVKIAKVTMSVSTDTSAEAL

Compound	extent of [^3H]CP55,940 displacement from hCB1R, in words (hCB1R [1])	hCB2R Emin (hCB2R [2])	Emax (hCB1R [3]) [%]	activity in hCB2R βarrestin2 recruitment, in words (hCB2R [5])	Emax (hCB2R [5]) [%]	Emax (hCB1R [6]) [%]	Emax (hCB2R [7]) [%]	Ki (hCB1R [1]) [nM]	hCB1R Emin (hCB1R [1])	extent of [^3H]CP55,940 displacement from hCB2R, in words (hCB2R [2])	agonist activity in hCB1R cAMP inhibition, in words (hCB1R [3])	EC50 (hCB1R [3]) [nM]	EC50 (hCB1R [6]) [nM]	Ki (hCB2R [13])	agonist activity in hCB2R cAMP inhibition, in words (hCB2R [7])	ligand bias at hCB2R (∆∆LogR), in words (hCB2R [15])	EC50 (hCB2R [7]; [16]) [nM]	other results
C=C(C)[C@@H]1CCC(C)=C[C@H]1c1c(O)cc(CCCCC)cc1O [CBD, cannabidiol, reference compound]	weakly displaced [^3H]CP55,940 at concentrations ≥ 1 µM	54 ± 9.3*^ %	26 ± 1.6	modest agonist activity	23 ± 2.8	1 ± 1.6	61 ± 2.3	–	–	–	–	–	–	–	–	–	–	effects in the tetrad of assays, in words (C57BL/6 mice [4]; between 1 and 10 mg/kg): no effects
CCCc1cc(O)c2c(c1)OC(C)(C)[C@@H]1CCC(C)=C[C@@H]21 [THCV, ∆^9-tetrahydrocannabivarin]	partially displaced	27 ± 9.5%	59 ± 3.9	demonstrable efficacy at hCB2R in the βarrestin2 recruitment assay, but with very low potency; also recorded: agonist	50 ± 6.8	0.05 ± 2.1	79 ± 1.3	22	54 ± 4.1*^ %	displaced [^3H]CP55,940 from hCB2R to an extent that was not different from CP55,940	weak partial agonist response	260	> 10000	47 nM	agonist	–	–	anti-nociceptive effect (tail flick latency), in words (C57BL/6 mice [8]; 3 and 10 mg/kg i.p.): anti-nociceptive; anti-nociceptive effect (tail flick latency), in words (C57BL/6 mice [8]; dose range 0.1–10 mg/kg i.p., 15 min post-injection): dose-dependent increase in anti-nociceptive effects; cataleptic response, % of maximum possible effect (MPE) (C57BL/6 mice [9]): 39%; effect on body temperature, in words (C57BL/6 mice [10]): decreased body temperature; also recorded: hypothermic; EC50 (hCB2R [5]): > 10000 nM; total locomotion in the OFT, in words (C57BL/6 mice [11]): hypolocomotive; time in the central quadrant of the OFT (modelled anxiolytic effect), in words (C57BL/6 mice [12]; 3 and 10 mg/kg i.p.): anxiolytic; EC50 (hCB2R [7]): 280 nM
CCCCCc1cc(O)c(C/C=C(\C)CCC=C(C)C)c(O)c1 [CBG, cannabigerol]	weakly displaced [^3H]CP55,940 at concentrations ≥ 1 µM	32 ± 8.1%	68 ± 2.4	–	22 ± 1.2	0.41 ± 0.45	39 ± 11	1300	49 ± 7.2*^ %	displaced [^3H]CP55,940 from hCB2R to an extent that was not different from CP55,940	weak partial agonist	120	–	500 nM and 490 nM	weak partial agonist	bias for inhibition of cAMP relative to βarrestin2	130	Ki (CB2R): > 1000 nM; anti-nociceptive effect (tail flick latency), in words (C57BL/6 mice [8]; 3 mg/kg i.p., 15 min post-injection): weak anti-nociceptive effect; also recorded: small but statistically significant anti-nociceptive effect; Ki (CB1R): > 1000 nM; ligand bias at hCB1R (∆∆LogR), in words (hCB1R [14]): bias for the inhibition of cAMP relative to βarrestin2; time in the central quadrant of the OFT (modelled anxiolytic effect), in words (C57BL/6 mice [12]; 10 mg/kg i.p.): anxiolytic-like effect
C=C(C)[C@@H]1CCC(C)=C[C@H]1c1c(O)cc(CCC)cc1O [CBDV, cannabidivarin]	weakly displaced [^3H]CP55,940 at concentrations ≥ 1 µM	22 ± 9.3 %	68 ± 5.7	demonstrable efficacy at hCB2R in the βarrestin2 recruitment assay, but with very low potency	64 ± 13	0.96 ± 0.75	51 ± 12	> 10000	96 ± 5.1*^ %	displaced [^3H]CP55,940 from hCB2R to an extent that was not different from CP55,940	–	> 10000	> 10000	140 nM	–	bias for inhibition of cAMP relative to βarrestin2	5	in vivo responses in the tetrad assays, in words (C57BL/6 mice [4]; doses tested 0.1–10 mg/kg i.p.): no significant in vivo responses; EC50 (hCB2R [5]; PathHunter CHO hCB2R cells, 90 min, 95% CI in brackets, read-out: hCB2R EC50, recruitment of βarrestin2): > 10000 nM

From article PMC7684313, “In vitro and in vivo pharmacological activity of minor cannabinoids isolated from Cannabis sativa” (Scientific Reports, 2020)
